Assays:
[1] = Water solubility of dicarboxylic acid agents; format: physicochemical
Excerpt: (§1) Two different dicarboxylic particles were used in the Examples herein. […] LCA141 is dodecanedioic acid (DDDA) (Agent B in U.S. Pat. No. 6,994,166), also from INVISTA.

[2] = Solubility of dicarboxylic acid agents in various solvents; format: physicochemical; conditions: 183° F. (84° C.)
Excerpt: as §1

Water solubility ([1]; 70° F. (21° C.)): Very low (70° F. (21° C.))
Water solubility ([1]; 140° F. (60° C.)): 0.012% (140° F. (60° C.))
Water solubility ([1]; 176° F. (80° C.)): 0.01% (176° F. (80° C.))
Water solubility ([1]; 212° F. (100° C.)): 0.04% (212° F. (100° C.))
Solubility, % ([2]; Blend C (50:50 v/v isopropanol and oxyalkylated alcohol mixture)): 6.99 (183° F. (84° C.)) %
Solubility, % ([2]; Ethylene glycol monobutyl ether (EGMBE)): 5.89 (183° F. (84° C.)) %
Solubility, % ([2]; Isopropanol): >9.73 (183° F. (84° C.)) %
Compound: O=C(O)CCCCCCCCCCC(=O)O [LCA141, dodecanedioic acid]

From US8653012B2, “Mutual solvent-soluble and/or alcohol blends-soluble particles for viscoelastic surfactant fluids” (Baker Hughes Incorporated, priority 2008, dated 2014)
